The results in this text go back to ChEMBL document CHEMBL3745669, “Isolation of bioactive biphenyl compounds from the twigs of Chaenomeles sinensis” (Bioorg Med Chem Lett, 2016).

Series [1] is described as follows: Cytotoxicity against mouse BV2 cells assessed as viable cells at 20 uM by MTT assay. Conditions: read-out: Activity. Format: cell-based, BV-2.
The test system of the next series is BV-2. Nature of the series: Anti-neuroinflammatory activity in mouse BV2 cells assessed as inhibition of LPS-induced NO production after 24 hrs by Griess assay. The class given is functional, cell-based. Conditions: BV-2, 24 h. (In general: Griess reagent forms a coloured azo dye with nitrite.)
A further series has as its system C6. Nature of the series: Stimulation of NGF secretion in rat C6 cells at 20 uM after 24 hrs by ELISA. The class given is functional. For orientation: An ELISA detects its analyte on a solid surface through an enzyme-linked reagent.
The nature of series [2]: Cytotoxicity against rat C6 cells assessed as viable cells at 20 uM by MTT assay. Conditions: read-out: Activity. The class given is cell-based. For orientation: Tetrazolium dyes change colour on reduction, which living cells bring about.
A further series concerns A549. Nature of the series: Cytotoxicity against human A549 cells after 48 hrs by SRB assay. Format: functional, cell-based. Conditions: A549, 48 h.
Series [3] is described as follows: Cytotoxicity against human SKOV3 cells after 48 hrs by SRB assay. The class given is functional, cell-based. To be noted: SK-OV-3, 48 h.
For the next series, the system named is SK-MEL-2. Nature of the series: Cytotoxicity against human SK-MEL-2 cells after 48 hrs by SRB assay. The class given is functional, cell-based. Conditions: SK-MEL-2, 48 h.
Series [4] in a line: Cytotoxicity against human HCT15 cells after 48 hrs by SRB assay. To be noted: HCT-15, 48 h. The class given is functional, cell-based.

For `COc1cc(-c2ccccc2O)cc(OC)c1O`, the viability at 20 µM is 118% in series [1] and 119% in series [2]. Further, the IC50 (as a rule, the concentration at which inhibition is half-maximal) in the series on BV-2 stood at 38.1 µM. For the same compound, the Activity with C6 amounted to 137.33%.
`COc1ccc2c(oc3c(OC)c(OC)c(O)cc32)c1O`: the IC50 is over 30 µM with A549; 15.8 µM in the series on BV-2; 19.3 µM in series [3]; 23.5 µM in the series with SK-MEL-2; over 30 µM in series [4]. The viability at 20 µM in series [1] is 198%; in series [2] it was 113%. In the series on C6, this compound gave an Activity of 186.49%.
For `COc1ccc(-c2cc(OC)c(O)c(OC)c2)c(OC)c1`, the IC50 with A549 stood at 5.18 µM; in the series on BV-2 it was 39.6 µM; in series [3], 7.84 µM; with SK-MEL-2 it was 6.94 µM; in series [4] it was 7.81 µM. Moreover, the viability at 20 µM in series [1] was found to be 129%; in series [2], 119%. For the same compound, the Activity in the series with C6 stood at 164.56%.
Take `COc1ccc(-c2cc(OC)c(O)c(Oc3c(OC)cc([C@@H](O)[C@H](O)CO)cc3OC)c2)c(OC)c1`: the IC50 with A549 was found to be 12.7 µM; in the series on BV-2 it was 48.4 µM; in series [3], 29.5 µM; in the series on SK-MEL-2, 16.3 µM; in series [4] it was 27.3 µM. The viability at 20 µM came to 132% in series [1] and 115% in series [2]. This compound also gave an Activity in the series with C6 of 125.81%.
For the compound `COc1ccccc1-c1cc(OC)c(O)c(OC)c1`, the viability at 20 µM in series [1] stood at 138%; in series [2] it was 118%. Besides, the IC50 with BV-2 was 28.1 µM. The Activity in the series with C6 was 152.86%.
The corresponding values for `COc1cc(-c2ccccc2)cc(OC)c1O` [AUCUPARIN] are 126%, 117%, 50.1 µM and 125.76%.
Take `COc1cc(-c2ccccc2)cc(Oc2c(OC)cc([C@@H](O)[C@H](O)CO)cc2OC)c1O` [BERBEKORIN A]: the IC50 in the series on A549 turned out to be 4.12 µM; in the series on BV-2, 49.3 µM; in series [3] it was 4.03 µM; in the series on SK-MEL-2, 4.49 µM; in series [4] it was 1.96 µM. The viability at 20 µM worked out at 116% in series [1] and 119% in series [2]. Besides, the Activity in the series with C6 worked out at 155.02%.
As to `COc1cc([C@@H]2c3cc4c(cc3[C@@H](O[C@@H]3O[C@@H]5CO[C@@H](C)O[C@H]5[C@H](O)[C@H]3O)[C@H]3COC(=O)[C@H]23)OCO4)cc(OC)c1O` [ETOPOSIDE], the IC50 was 1.74 µM in the series on A549, 1.96 µM in series [3], 1.33 µM with SK-MEL-2 and 2.95 µM in series [4].
Compound `CCCCC/C=C/C(=O)CCc1ccc(O)c(OC)c1` [SHOGAOL] showed an Activity in the series on C6 of 158.18%. The viability at 20 µM in series [2] was determined as 110%.
Regarding `CNC(=N)NCCC[C@H](N)C(=O)O` [TILARGININE], the viability at 20 µM in series [1] came out at 100%. In addition, the IC50 with BV-2 worked out at 20.5 µM.
